Values after ≈ are worked out from the molar mass of the structure shown.
Tests used:
[1] = Half-life in female C57BL/6 mouse at 1 mg/kg, iv measured after 0.083 hrs by LC-MS/MS analysis; conditions: in vivo
in vitro = conditions: CD-1, mouse, pooled liver microsomes
[2] = target: T1, 3-beta-hydroxysteroid-Delta(8),Delta(7)-isomerase (Mus musculus, UniProt P70245); test: Inhibition of EBP in mouse Oligodendrocyte precursor cell assessed as zymostenol accumulation by GCMS analysis
T1 sequence (P70245 whole entry): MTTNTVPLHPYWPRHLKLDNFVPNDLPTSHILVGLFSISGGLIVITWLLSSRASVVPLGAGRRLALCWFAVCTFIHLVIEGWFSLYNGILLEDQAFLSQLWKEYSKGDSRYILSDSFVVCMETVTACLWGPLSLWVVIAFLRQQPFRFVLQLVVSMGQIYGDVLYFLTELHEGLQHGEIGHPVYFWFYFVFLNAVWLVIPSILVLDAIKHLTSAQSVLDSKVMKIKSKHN

[3] = target: 3-beta-hydroxysteroid-Delta(8),Delta(7)-isomerase (Homo sapiens, UniProt Q15125); test: Inhibition of EBP in human Mesenchymal stem cells assessed as zymostenol accumulation by GCMS analysis
Sequence of 3-beta-hydroxysteroid-Delta(8),Delta(7)-isomerase (Homo sapiens, UniProt Q15125) (Q15125 whole entry): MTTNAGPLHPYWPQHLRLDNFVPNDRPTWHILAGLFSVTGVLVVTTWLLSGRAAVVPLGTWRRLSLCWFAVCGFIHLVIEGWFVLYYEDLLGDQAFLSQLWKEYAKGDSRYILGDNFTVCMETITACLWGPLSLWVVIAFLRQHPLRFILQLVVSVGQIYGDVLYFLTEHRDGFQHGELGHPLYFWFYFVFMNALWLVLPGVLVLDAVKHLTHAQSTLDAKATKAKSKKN

[4] = target: Voltage-gated inwardly rectifying potassium channel KCNH2 (Homo sapiens, UniProt Q12809); test: Inhibition of human ERG expressed in CHO cells by whole cell patch clamp recording
Sequence of Voltage-gated inwardly rectifying potassium channel KCNH2 (Q12809 whole entry): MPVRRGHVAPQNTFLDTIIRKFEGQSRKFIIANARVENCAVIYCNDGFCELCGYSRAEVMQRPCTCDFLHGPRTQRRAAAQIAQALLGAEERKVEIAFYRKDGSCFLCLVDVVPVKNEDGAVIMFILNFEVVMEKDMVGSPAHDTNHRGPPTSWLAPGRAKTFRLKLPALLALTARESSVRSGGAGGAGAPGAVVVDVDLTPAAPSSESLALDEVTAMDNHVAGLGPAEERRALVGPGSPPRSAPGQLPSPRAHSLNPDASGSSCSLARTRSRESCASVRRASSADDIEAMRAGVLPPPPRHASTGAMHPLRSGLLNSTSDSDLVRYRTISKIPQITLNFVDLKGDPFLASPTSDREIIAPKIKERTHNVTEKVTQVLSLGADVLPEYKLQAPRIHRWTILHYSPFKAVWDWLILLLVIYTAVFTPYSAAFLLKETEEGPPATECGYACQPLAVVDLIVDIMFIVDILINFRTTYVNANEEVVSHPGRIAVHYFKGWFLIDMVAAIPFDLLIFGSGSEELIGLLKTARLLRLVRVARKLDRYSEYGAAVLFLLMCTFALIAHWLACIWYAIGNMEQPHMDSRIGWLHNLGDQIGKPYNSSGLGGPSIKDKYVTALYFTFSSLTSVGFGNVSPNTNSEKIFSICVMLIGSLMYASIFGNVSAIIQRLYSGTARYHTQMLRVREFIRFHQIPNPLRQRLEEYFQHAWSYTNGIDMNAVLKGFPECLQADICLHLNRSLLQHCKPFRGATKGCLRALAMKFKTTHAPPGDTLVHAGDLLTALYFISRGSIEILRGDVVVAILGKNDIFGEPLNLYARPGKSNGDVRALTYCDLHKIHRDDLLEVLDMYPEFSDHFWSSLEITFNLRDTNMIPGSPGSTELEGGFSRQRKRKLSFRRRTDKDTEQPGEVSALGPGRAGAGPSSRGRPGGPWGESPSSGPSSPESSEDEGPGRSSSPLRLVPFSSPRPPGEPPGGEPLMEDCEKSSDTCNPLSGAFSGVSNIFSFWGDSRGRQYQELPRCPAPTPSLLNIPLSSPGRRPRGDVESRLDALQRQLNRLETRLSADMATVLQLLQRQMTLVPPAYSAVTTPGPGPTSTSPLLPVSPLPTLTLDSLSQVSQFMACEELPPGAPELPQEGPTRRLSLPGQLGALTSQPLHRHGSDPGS

[5] = Dissociation constant, pKa of compound
[6] = Unbound brain-to-plasma concentration ratio in female C57BL/6 mouse at 1 mg/kg, iv measured after 8 hrs by LC-MS/MS analysis
[7] = Half-life in male Sprague-Dawley rat at 1 mg/kg, iv measured after 8 hrs by LC-MS/MS analysis; conditions: in vivo
[8] = Unbound brain-to-plasma concentration ratio in male Sprague-Dawley rat at 1 mg/kg, iv measured after 8 hrs by LC-MS/MS analysis
[9] = Clearance in female C57BL/6 mouse at 1 mg/kg, iv measured after 0.083 hrs by LC-MS/MS analysis; conditions: in vivo
[10] = Clearance in male Sprague-Dawley rat at 1 mg/kg, iv measured after 8 hrs by LC-MS/MS analysis; conditions: in vivo
[11] = Volume of distribution at steady state in female C57BL/6 mouse at 1 mg/kg, iv measured after 0.083 hrs by LC-MS/MS analysis; conditions: in vivo
[12] = Volume of distribution at steady state in male Sprague-Dawley rat at 1 mg/kg, iv measured after 8 hrs by LC-MS/MS analysis; conditions: in vivo
[13] = Unbound brain-to-plasma concentration ratio in male Sprague-Dawley rat at 5 mg/kg, po measured after 8 hrs by LC-MS/MS analysis
[14] = Kinetic solubility of compound in PBS at pH 7.4
BCRP = test: in vitro; conditions: dog
[15] = Protein binding in CD-1 mouse plasma at 5 uM incubated for 6 hrs by equilibrium dialysis based HPLC analysis
[16] = Unbound brain-to-plasma concentration ratio in female C57BL/6 mouse at 0.2 mg/kg administered daily for 7 days and measured 8 hrs post last dose
in vivo [17] = conditions: male, Sprague-Dawley, rat, po, 5 mg/kg
[18] = Half-life in female C57BL/6 mouse at 10 mg/kg, po measured after 24 hrs by LC-MS/MS analysis; conditions: in vivo
[19] = Half-life in male Sprague-Dawley rat at 5 mg/kg, po measured after 8 hrs by LC-MS/MS analysis; conditions: in vivo
[20] = Unbound brain-to-plasma concentration ratio in female C57BL/6 mouse at 10 mg/kg, po measured after 8 hrs by LC-MS/MS analysis
in vivo [21] = conditions: female, C57BL/6, mouse, brain/plasma, 2 mg/kg
Description: Unbound brain-to-plasma concentration ratio in female C57BL/6 mouse at 2 mg/kg administered daily for 7 days and measured 8 hrs post last dose

[22] = Protein binding in Sprague-Dawley rat plasma at 5 uM incubated for 6 hrs by equilibrium dialysis based HPLC analysis
MDR1 = test: in vitro; conditions: dog, MDCK-MDR1
in vivo [23] = conditions: female, C57BL/6, mouse, po, 10 mg/kg
[24] = Protein binding in human plasma at 5 uM incubated for 6 hrs by equilibrium dialysis based HPLC analysis

In the case of CCN1C(=O)N(c2cc(Cl)cc(C#N)c2)C(=O)C12CCN(CC1CCOCC1)CC2, the half-life at […] [1] is reported as 0.8 h, the CLhep predicted at 1 h, 1 µM (in vitro) is reported as 35 mL/min/kg and the EC50 [2] is reported as 16 nM.

With CC(C)N1C(=O)N(c2ccc(C(F)(F)F)cc2)C(=O)C12CCN(CC1CCOCC1)CC2 the EC50 [3] was 669 nM, the CLhep predicted at 1 h, 1 µM (in vitro) was < 14 mL/min/kg and the EC50 [2] was 315 nM.

With O=C1N(c2ccc(C(F)(F)F)cc2)CCC12CCN(CC1CCOCC1)CC2 the EC50 [3] was 147 nM, the CLhep predicted at 1 h, 1 µM (in vitro) was 18 mL/min/kg and the EC50 [2] was 36 nM.

Work on CCN1C(=O)N(c2ccc(C(F)(F)F)cc2)C(=O)C12CCN(CC1CCS(=O)(=O)CC1)CC2 yielded an IC50 [4] of 73000 nM, an EC50 [2] of 43 nM and a pKa [5] of 8.1.

Molecule CCN1C(=O)N(c2ccc(C(F)(F)F)cc2)C(=O)C12CCN(CC1(F)CCOCC1)CC2 has an IC50 [4] of 65000 nM, an EC50 [2] of 68 nM and a pKa [5] of 5.7.

Work on CCN1C(=O)N(c2cccc(C3CC3)c2)C(=O)C12CCN(CC1CCOCC1)CC2 yielded a half-life at […] [1] of 1.2 h, a CLhep predicted at 1 h, 1 µM (in vitro) of 47 mL/min/kg and an EC50 [2] of 9 nM.

CCN1C(=O)N(c2ccc(C(F)(F)F)cc2)C(=O)C12CCN(CC1CCOCC1)CC2 showed a half-life at […] [1] of 62 h, a Kp uu at 8 h [6] of 0.95 and a half-life at 8 h [7] of 16 h. It also gave a Kp uu at 8 h [8] of 1.59, a CLhep predicted at 1 h, 1 µM (in vitro) of 17 mL/min/kg and an IC50 [4] of 3000 nM. It also gave a clearance at […] [9] of 4 mL/min/kg, an EC50 [2] of 6 nM and a clearance at 8 h [10] of 6.3 mL/min/kg. The pKa [5] was 7.9, the Vd at […] [11] was 7.4 L/kg and the Vd at 8 h [12] was 8.3 L/kg.

With CCN1C(=O)N(c2ccc(C3CC3)cc2)C(=O)C12CCN(CC1CCOCC1)CC2 the Kp uu at 8 h [13] was 0.5, the half-life at […] [1] was 3.9 h and the solubility kinetic [14] was 64 µM (≈ 26.3 µg/mL). For the same molecule, the Papp A→B (BCRP) was 20 ×10⁻⁶ cm/s, the fraction unbound at 6 h, 5 µM [15] was 0.364 and the Kp uu at 176 h [16] was 1.7. It also gave a bioavailability at 8 h (in vivo [17]) of 42%, a Kp uu at 8 h [6] of 0.77 and a half-life at 24 h [18] of 3.3 h. It also gave a half-life at 8 h [7] of 4.4 h, a half-life at 8 h [19] of 5.1 h and a Kp uu at 8 h [20] of 0.72. The Kp uu at 8 h [8] was 0.74, the CLhep predicted at 1 h, 1 µM (in vitro) was < 14 mL/min/kg and the IC50 [4] was 8200 nM. For the same molecule, the clearance at […] [9] was 17 mL/min/kg, the Kp uu at 176 h (in vivo [21]) was 0.6 and the fraction unbound at 6 h, 5 µM [22] was 0.3. It also gave a Papp A→B (MDR1) of 15 ×10⁻⁶ cm/s, an EC50 [2] of 8 nM and a clearance at 8 h [10] of 17 mL/min/kg. It also gave a bioavailability at 24 h (in vivo [23]) of 68%, a fraction unbound at 6 h, 5 µM [24] of 0.291 and a Vd at […] [11] of 5.2 L/kg. The Vd at 8 h [12] was 6.2 L/kg.

In the case of CCN1C(=O)N(c2ccc(Cl)cc2)C(=O)C12CCN(CC1CCOCC1)CC2, the half-life at […] [1] is reported as 5.7 h and the CLhep predicted at 1 h, 1 µM (in vitro) is reported as 25 mL/min/kg.

For O=C1NC2(CCN(CC3CCOCC3)CC2)C(=O)N1c1ccc(C(F)(F)F)cc1, the CLhep predicted at 1 h, 1 µM (in vitro) was < 14 mL/min/kg and the EC50 [2] was 1000 nM.

In the case of CN1C(=O)N(c2ccc(C(F)(F)F)cc2)C(=O)C12CCN(CC1CCOCC1)CC2, the CLhep predicted at 1 h, 1 µM (in vitro) is reported as < 14 mL/min/kg and the EC50 [2] is reported as 20 nM.

For O=C1N(c2ccc(C(F)(F)F)cc2)C(=O)C2(CCN(CC3CCOCC3)CC2)N1C1CC1, the CLhep predicted at 1 h, 1 µM (in vitro) was < 14 mL/min/kg.

For CCN1C(=O)N(c2ccc(C)cc2)C(=O)C12CCN(CC1CCOCC1)CC2, the half-life at […] [1] was 1.8 h, the CLhep predicted at 1 h, 1 µM (in vitro) was < 14 mL/min/kg and the EC50 [2] was 18 nM.

Work on CCN1C(=O)N([C@H]2CC[C@H](C(F)(F)F)CC2)C(=O)C12CCN(CC1CCOCC1)CC2 yielded a Kp uu at 8 h [13] of 0.58, a half-life at […] [1] of 5.7 h and a solubility kinetic [14] of 29 µM (≈ 12.9 µg/mL). For the same molecule, the Papp A→B (BCRP) was 20 ×10⁻⁶ cm/s, the fraction unbound at 6 h, 5 µM [15] was 0.376 and the bioavailability at 8 h (in vivo [17]) was 13%. It also gave a Kp uu at 8 h [6] of 0.56, a half-life at 24 h [18] of 5.3 h and a half-life at 8 h [7] of 12 h. For the same molecule, the Kp uu at 8 h [20] was 0.62, the Kp uu at 8 h [8] was 0.6 and the CLhep predicted at 1 h, 1 µM (in vitro) was < 14 mL/min/kg. For the same molecule, the IC50 [4] was 8000 nM, the clearance at […] [9] was 9.9 mL/min/kg and the fraction unbound at 6 h, 5 µM [22] was 0.278. The Papp A→B (MDR1) was 14 ×10⁻⁶ cm/s, the clearance at 8 h [10] was 9.2 mL/min/kg and the bioavailability at 24 h (in vivo [23]) was 47%. The fraction unbound at 6 h, 5 µM [24] was 0.296, the Vd at […] [11] was 5.1 L/kg and the Vd at 8 h [12] was 8.3 L/kg.

For CCN1C(=O)N(c2ccc(C(F)(F)F)cc2)C(=O)C12CCN(C(C)C1CCOCC1)CC2 (stereo not given), the IC50 [4] was 2900 nM, the EC50 [2] was 41 nM and the pKa [5] was 8.2.

CCN1C(=O)N(c2ccc(C(F)(F)F)cc2)C(=O)C12CCN(C1CCCOCC1)CC2 (stereo not given) showed an IC50 [4] of 850 nM, an EC50 [2] of 95 nM and a pKa [5] of 8.1.

For CCN1C(=O)N(c2ccc(C(F)(F)F)cc2)C(=O)C12CCN(C1CCOCC1)CC2, the IC50 [4] was 4400 nM, the EC50 [2] was 364 nM and the pKa [5] was 8.2.

Source: ChEMBL document CHEMBL5518221, “Discovery and Optimization of Selective Brain-Penetrant EBP Inhibitors that Enhance Oligodendrocyte Formation” (J Med Chem, 2024)
